# Assay results taken from paper PMC9784969, “SARS-CoV-2 Inhibitors Identified by Phenotypic Analysis of a Collection of Viral RNA-Binding Molecules” (Pharmaceuticals, 2022).
# Read-outs that look alike come from different tables or passages of the source.
# Key:
# SARS-CoV-2 USA-WA1/2020 [1] = test: microbe, parasite or virus in culture; format: cell-based; details: read-out: SARS-CoV-2 EC50
# HIV-1 = details: cited from earlier work
# [2] = test system: subdomain IIB of the rev recognition element (RRE) of the HIV-1 genomic RNA; details: cited from earlier work
# in vitro [3] = details: African green monkey, uninfected Vero E6 cells
# SARS-CoV-2 USA-WA1/2020 [4] = test: microbe, parasite or virus in culture; format: cell-based; details: read-out: SARS-CoV-2 EC50; remark: listed apart in the source
# in vitro [5] = details: human, uninfected 293T-ACE2 cells
# SCoV2 USA-WA1/2020 = format: cell-based; details: 293T-ACE2, MOI 2, 8-h single cycle
# SCoV2 RNA elements = test: ligand-based 1H NMR (1D, CPMG, wLOGSY), six RNA elements compared; format: binding, SARS-CoV-2; details: CSP, LB, CPMG and wLOGSY perturbations; 300 µM compound
# Description: We first used ligand-based ^1H NMR experiments to analyze the interaction of the selected compounds with each of the six RNA elements specified above, including one-dimensional, Carr–Purcell–Meiboom–Gill (CPMG) and waterLOGSY (wLOGSY) experiments. These assays detect changes in the ^1H signals of the ligand upon RNA association (Figure 4A), and have been successfully used to evaluate small-molecule binding to RNA motifs, including elements of the SCoV2 genome.
# Each ligand (at a concentration of 300 μM) was mixed with a smaller quantity of RNA in an aqueous solution containing 25 mM potassium phosphate (pH 6.2), 150 mM KCl, 3 mM MgCl2, and 10% D2O. RNA–ligand molar ratios of 1:50 and 1:100 were explored (with 6 and 3 μM RNA, respectively). […] The water signal was suppressed from one-dimensional experiments with a watergate sequence. The CPMG experiments were acquired with 100, 200, 300, and 400 ms relaxation delays before acquisition, and water suppression was achieved by presaturation. wLOGSY experiments employed a selective Gaussian 180° pulse at the water frequency and an NOE mixing time of 1.5 s and suppressed the water signal by excitation sculpting. All spectra were acquired in the absence and presence of RNA.
# All ligand signals were individually analyzed. For clomiphene citrate, the signals corresponding to cis and trans forms were identified by comparing the spectrum of clomiphene citrate with those of the individual stereoisomers. In CPMG experiments, the binding of the compounds to the different RNA sequences was quantified as 100 minus the percentage of ligand signal area in the +RNA CPMG spectrum relative to the corresponding signal area in the -RNA CPMG spectrum. In wLOGSY experiments, binding was quantified with the LOGSY factor, or % of ligand signal in the difference spectrum between the +RNA and –RNA wLOGSY spectra, relative to the corresponding signal in the one-dimensional -RNA reference spectrum. In one-dimensional experiments, line broadening (LB) was quantified as explained for CPMG spectra.
# [6] = Severe acute respiratory syndrome coronavirus 2, Vero C1008, 48 h, Vero E6 cells, MOI 0.025, two days
# [7] = ref 1 (Table S1 list: Prado et al. 2016)
# [8] = Severe acute respiratory syndrome coronavirus 2, Vero C1008, 48 h
# [9] = Severe acute respiratory syndrome coronavirus 2, 293T/ACE2, 48 h
# [10] = ref 2 (Table S1 list: Prado et al. 2018)
# [11] = ref 3 (Table S1 list: Simba-Lahuasi et al., Unpublished results)
# [12] = ref 5 (Table S1 list: Sedgwick, Ph.D. thesis 2018)
# [13] = ref 4 (Table S1 list: Medina-Trillo et al. 2020)
# [14] = Vero E6 cells, MOI 0.025, two days
compound,measurement,setting,value
CN(C)CCOc1ccc(C(=C(CCO)c2ccccc2)c2ccccc2)cc1 [βOH-tamoxifen],EC50,SARS-CoV-2 USA-WA1/2020 [1]; [6],5.4 µM
same,Previous target virus activity,HIV-1; ref Unpublished,yes
same,Previous target RNA binding,[2]; ref Unpublished,yes
same,CC50 at 2 days,in vitro [3],22.2 µM
"O=C(O)c1cn(C2CC2)c2cc(N3CCNCC3)c(F)cc2c1=O [Cyprofloxacine, reference compound]",EC50,SARS-CoV-2 USA-WA1/2020 [1]; [6],> 20 µM
same,Previous target virus activity,HIV-1; [7],yes
same,Previous target RNA binding,[2]; [7],yes
Fc1nc(N2CCNCC2)c(F)c(Sc2ccc(Cl)cc2)c1F [2a],EC50,SARS-CoV-2 USA-WA1/2020 [1]; [8],6.24 µM
same,EC50,SARS-CoV-2 USA-WA1/2020 [4]; [9],0.63 µM
same,Previous target virus activity,HIV-1; [10],yes
same,Previous target RNA binding,[2]; [10],yes
same,CC50 at 2 days,in vitro [3],> 20 µM
same,CC50 at 2 days,in vitro [5],5.32 µM
"CN1CCC(=C2c3ccccc3C=Cc3ccccc32)CC1 [Cyprohetadine, reference compound]",Previous target virus activity,HIV-1; [7],yes
same,Previous target RNA binding,[2]; [7],yes
same,CC50 at 2 days,in vitro [3],> 20 µM
CC1CN(C(c2ccccc2)(c2ccccc2)c2ccccc2)CCN1 (centres unmarked) [Trityl-piperazine],EC50,SARS-CoV-2 USA-WA1/2020 [1]; [6],0.644 µM
same,EC50,"SARS-CoV-2 USA-WA1/2020 [4]; Severe acute respiratory syndrome coronavirus 2, 48 h, 293T-ACE2 cells, MOI 0.25, two days",0.27 µM
same,Previous target virus activity,HIV-1; [11],yes
same,Previous target RNA binding,[2]; [11],yes
same,CC50 at 2 days,in vitro [3],2.22 µM
same,CC50 at 2 days,in vitro [5],> 3.67 µM
CCC(=C(c1ccc(OC)cc1)c1ccc(OC)cc1)c1cn(CC(O)CN(C)C)c2ccccc12 (centres unmarked) [Bisphenylindol],EC50,SARS-CoV-2 USA-WA1/2020 [1]; [6],2.1 µM
same,Previous target virus activity,HIV-1; [11],yes
same,Previous target RNA binding,[2]; [11],yes
Cc1cc(-c2c(CCN)cccc2CCN)cc(C)c1-c1cc(CCN)c(Oc2ccccc2)c(CCN)c1 [compound 6],EC50,SARS-CoV-2 USA-WA1/2020 [1]; [6],> 20 µM
same,Previous target virus activity,HIV-1; [12],yes
same,Previous target RNA binding,[2]; [12],yes
same,CC50 at 2 days,in vitro [3],> 20 µM
CCC(=C(c1ccccc1)c1ccc(OCCN(C)CCOc2ccc(C(=C(CC)c3ccccc3)c3ccccc3)cc2)cc1)c1ccccc1 [Tamoxifen dimer],EC50,SARS-CoV-2 USA-WA1/2020 [1]; [6],> 20 µM
same,Previous target virus activity,HIV-1; ref Unpublished,no
same,Previous target RNA binding,[2]; ref Unpublished,yes
same,CC50 at 2 days,in vitro [3],> 20 µM
COc1ccc(-c2cc(C)c(-c3cc(CCN)c(OC)cc3CCN)cc2C)cc1CCN [3a],EC50,SARS-CoV-2 USA-WA1/2020 [1]; [6],> 20 µM
same,Previous target virus activity,HIV-1; [13],yes
same,Previous target RNA binding,[2]; [13],yes
same,CC50 at 2 days,in vitro [3],> 20 µM
CCC(=C(c1ccccc1)c1ccc(OCCN(C)C)cc1)c1ccc(O)cc1 [4'OH-tamoxifen],EC50,SARS-CoV-2 USA-WA1/2020 [1]; [6],0.74 µM
same,Previous target virus activity,HIV-1; ref Unpublished,yes
same,Previous target RNA binding,[2]; ref Unpublished,yes
same,CC50 at 2 days,in vitro [3],2.7 µM
CCN(CC)CCNc1cc(-c2cccs2)nc2ccccc12 [1d],EC50,SARS-CoV-2 USA-WA1/2020 [1]; [6],6.64 µM
same,EC50,SARS-CoV-2 USA-WA1/2020 [1]; [14],6.24 µM
same,Previous target virus activity,HIV-1; [10],yes
same,Previous target RNA binding,[2]; [10],yes
same,CC50 at 2 days,in vitro [5],7.5 µM
Cc1cc(-c2c(CCNC(=N)N)cccc2CCNC(=N)N)cc(C)c1-c1cc(CCCNC(=N)N)cc(CCCNC(=N)N)c1 [compound 18],EC50,SARS-CoV-2 USA-WA1/2020 [1]; [6],> 20 µM
same,Previous target virus activity,HIV-1; [12],yes
same,Previous target RNA binding,[2]; [12],yes
same,CC50 at 2 days,in vitro [3],> 20 µM
"CCC(CC)COC(=O)[C@H](C)N[P@](=O)(OC[C@H]1O[C@@](C#N)(c2ccc3c(N)ncnn23)[C@H](O)[C@@H]1O)Oc1ccccc1 [Remdesivir, reference compound]",EC50,SARS-CoV-2 USA-WA1/2020 [1]; [8],0.428 µM
same,EC50,SARS-CoV-2 USA-WA1/2020 [4]; [9],0.0104 µM
same,inhibition when added at +4 h,SCoV2 USA-WA1/2020,decreased
same,CC50 at 2 days,in vitro [3],> 20 µM
same,CC50 at 2 days,in vitro [5],> 2 µM
COc1ccc(-c2ccc(-c3ccc(O)c(CCN)c3)c(C)c2)c(CCN)c1 [compound 1],EC50,SARS-CoV-2 USA-WA1/2020 [1]; [6],> 20 µM
same,Previous target RNA binding,[2]; [12],yes
same,CC50 at 2 days,in vitro [3],> 20 µM
"O=C1c2c(O)ccc(O)c2C(=O)c2c(NCCNCCO)ccc(NCCNCCO)c21 [Mitoxantrone, reference compound]",EC50,SARS-CoV-2 USA-WA1/2020 [1]; [6],2.4 µM
same,Previous target virus activity,HIV-1; [7],yes
same,Previous target RNA binding,[2]; [7],yes
same,CC50 at 2 days,in vitro [3],0.806 µM
"CCN(CC)CCOc1ccc(C(O)(Cc2ccc(Cl)cc2)c2ccc(C)cc2)cc1 (centres unmarked) [Triparanol, reference compound]",EC50,SARS-CoV-2 USA-WA1/2020 [1]; [6],0.811 µM
same,Previous target virus activity,HIV-1; [11],yes
same,Previous target RNA binding,[2]; [11],yes
same,CC50 at 2 days,in vitro [3],> 20 µM
CN(C)CCOc1cc2c(c3ccccc13)-c1ccccc1C2=O [1a],EC50,SARS-CoV-2 USA-WA1/2020 [1]; [14],> 20 µM
same,Previous target virus activity,HIV-1; [10],yes
same,Previous target virus activity,HIV-1; [13],yes
same,Previous target RNA binding,[2]; [10],yes
same,Previous target RNA binding,[2]; [13],yes
Cc1cc(-c2cc(CCN)ccc2CCN)c(C)cc1-c1ccccc1CCN [compound 4],EC50,SARS-CoV-2 USA-WA1/2020 [1]; [6],> 20 µM
same,Previous target virus activity,HIV-1; [13],yes
same,Previous target RNA binding,[2]; [13],yes
same,CC50 at 2 days,in vitro [3],> 20 µM
Trans-clomiphene,Previous target virus activity,HIV-1; ref Unpublished,yes
same,Previous target RNA binding,[2]; ref Unpublished,yes
Cc1cc(-c2c(CCN)cccc2CCN)cc(C)c1-c1cc(CCCN)c(O)c(CCCN)c1 [compound 11],EC50,SARS-CoV-2 USA-WA1/2020 [1]; [6],> 20 µM
same,Previous target virus activity,HIV-1; [12],yes
same,Previous target RNA binding,[2]; [12],yes
same,CC50 at 2 days,in vitro [3],> 20 µM
OC(CNCC1CCCO1)Cn1c2ccc(Br)cc2c2cc(Br)ccc21 (centres unmarked) [1b],Previous target virus activity,HIV-1; [10],yes
same,Previous target virus activity,HIV-1; [13],no
same,Previous target RNA binding,[2]; [10],yes
same,Previous target RNA binding,[2]; [13],yes
C=C(C)Cn1c(NCCCn2ccnc2)nc2c1c(=O)[nH]c(=O)n2C [17a5],EC50,SARS-CoV-2 USA-WA1/2020 [1]; [6],> 20 µM
same,Previous target virus activity,HIV-1; [10],yes
same,Previous target RNA binding,[2]; [10],yes
same,CC50 at 2 days,in vitro [3],> 20 µM
Cis-clomiphene,RNA binding preference,SCoV2 RNA elements,bound RNA with stronger affinity than the trans form
same,Previous target virus activity,HIV-1; ref Unpublished,yes
same,Previous target RNA binding,[2]; ref Unpublished,yes
